# From patent US20240174596A1 (Northwestern University, priority 2021, published 2024)
# Counter-ions that a name gives are not always drawn.
# What was measured:
# [1] = Liver microsomal stability, mouse; assay type: in vitro ADME
# Asp-AT = molecular target: T1, Asp-AT (Sus scrofa, UniProt P00503); assay: Inhibition of Asp-AT; assay type: biochemical, porcine
# T1 construct: L-aspartate aminotransferase (Asp-AT) from the porcine heart; purchased Sigma-Aldrich G2751-2KU; host or cells: porcine heart
# Procedure: All reagents for enzyme purification and assays were purchased from Sigma-Aldrich (St. Louis, MO, USA). […] All the enzyme assays for the inactivation, partition ratio, and dialysis experiment were recorded on a Synergy H1 hybrid multimode microplate reader (Biotek, USA) with transparent 96-well plates. […]
# potassium phosphate at pH 7.4, 5.55 mM α-ketoglutarate, 1.11 mM NADH, 5.55 mM […], 5.55 units of malic dehydrogenase, and various concentrations of SS-1-148. […] The plate was shaken at room temperature for 1 min, and the absorbance was measured at 340 nm every 10 s for 90 min based on the conversion of NADH to NAD^+. The remaining Asp-AT activity percentage was calculated according to the corresponding concentrations. […]
# hOAT = molecular target: T2, hOAT (Homo sapiens, UniProt P04181); assay: Transient state (stopped-flow) measurements of hOAT reacting with SS-1-148; assay type: biochemical; conditions: 10° C., pH 7.5
# T2 construct: made in house; host or cells: E. coli BL21(DE3)
# T2 sequence (P04181 26-439): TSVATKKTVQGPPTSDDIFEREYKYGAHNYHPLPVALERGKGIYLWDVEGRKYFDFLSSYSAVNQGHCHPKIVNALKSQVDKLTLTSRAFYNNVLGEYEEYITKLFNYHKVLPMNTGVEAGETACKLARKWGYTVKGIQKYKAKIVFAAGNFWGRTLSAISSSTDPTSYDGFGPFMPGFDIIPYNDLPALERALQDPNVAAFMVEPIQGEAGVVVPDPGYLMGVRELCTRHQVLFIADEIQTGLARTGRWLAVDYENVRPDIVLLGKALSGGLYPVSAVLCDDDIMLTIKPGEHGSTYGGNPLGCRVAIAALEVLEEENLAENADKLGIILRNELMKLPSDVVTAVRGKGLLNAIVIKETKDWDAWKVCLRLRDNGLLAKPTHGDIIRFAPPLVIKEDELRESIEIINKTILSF
# Procedure: FIG. 6. Transient state absorption changes observed at 275, 420, and 560 nm for hOAT reacting with SS-1-148. OAT (12.7 μM final) was mixed with SS-1-148 (126, 251, 502, 1004, 2008, 4016 μM), and CCD spectra were collected for the timeframe 0.009-49.2 seconds. (A) The data observed at 420 nm fit to a linear combination of three exponential terms according to equation (3) described in the supporting information. The arrow indicates the trend observed in amplitude for increasing inhibitor concentration. (B) The observed rate constant dependence of the first phase observed at 420 nm fit to equation (5) described in the supporting information. The values for k2 and k3 indicated are the average values obtained from the fit in FIG. 5A. The fit is shown in red dashes. (C) The data observed at 560 nm. The curved arrow indicates the trend observed in amplitude for increasing inhibitor concentration. […] The fit is shown in red dashes. (D) The data observed at 275 nm over 2000 sec obtained in the presence of 8032 μM SS-1-148 fit to a linear combination of two exponential terms according to equation (4) in the supporting information. The fit is shown in red dashes.
# FIG. 7. Partial deconvolution by singular value decomposition (SVD) of transient state absorption changes observed for hOAT reacting with SS-1-148. hOAT (6.94 μM; final concentration) was reacted in a stopped-flow spectrophotometer with SS-1-148 (1040 μM; final concentration) at 10° C. To obtain time resolution sufficient to analyze kinetic rates spanning four orders of magnitude, a composite CCD absorbance dataset was prepared spanning 250-800 nm and 0.0137-9843 sec by splicing together averaged short and long time-frame datasets. […] The species concentration profile based on the rate constants used to fit the dataset (B). A three-dimensional depiction of a subset of spectra from the dataset analyzed (C).
# For each concentration of the inhibitor, CCD spectral datasets were collected in duplicate for 50 sec, and the duplicates were averaged For the highest concentration of inhibitor (8 mM) duplicate CCD datasets were acquired for two timeframes (0.0025-12.4 sec and 0.0025-2480 sec). Duplicate datasets for anyone timeframe were averaged and then spliced together at 12 sec to form one dataset with sufficient time resolution to adequately describe rapid and slow processes. […] In the process, the rate constants were fixed to the values measured using analytical fits to data extracted for single wavelengths that assume successive first-order processes according to the equations (3), (4), and (5). Abs is absorbance, Ax are the amplitudes associated with each observed phase, kx are the corresponding rate constants, and C is the absorbance endpoint.
# CYP 2C19 = CYP 2C19 (Homo sapiens, UniProt P33261); assay: CYP inhibition 2C19; assay type: in vitro ADME
# Chain of CYP 2C19 (P33261 whole entry): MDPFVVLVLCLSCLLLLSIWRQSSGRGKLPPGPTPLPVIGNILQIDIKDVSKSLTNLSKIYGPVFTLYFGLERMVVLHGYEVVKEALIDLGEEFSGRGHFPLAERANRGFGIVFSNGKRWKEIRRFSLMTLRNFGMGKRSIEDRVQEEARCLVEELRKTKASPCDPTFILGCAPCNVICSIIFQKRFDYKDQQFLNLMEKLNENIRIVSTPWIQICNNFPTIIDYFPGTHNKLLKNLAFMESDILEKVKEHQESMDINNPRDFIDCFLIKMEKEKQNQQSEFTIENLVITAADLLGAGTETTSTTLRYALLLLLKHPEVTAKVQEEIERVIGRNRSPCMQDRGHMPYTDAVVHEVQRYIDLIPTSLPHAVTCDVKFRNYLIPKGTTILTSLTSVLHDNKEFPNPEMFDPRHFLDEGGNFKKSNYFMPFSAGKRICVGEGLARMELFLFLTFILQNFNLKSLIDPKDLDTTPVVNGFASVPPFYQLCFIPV
# T1 sequence (P00503 2-413 limits assumed): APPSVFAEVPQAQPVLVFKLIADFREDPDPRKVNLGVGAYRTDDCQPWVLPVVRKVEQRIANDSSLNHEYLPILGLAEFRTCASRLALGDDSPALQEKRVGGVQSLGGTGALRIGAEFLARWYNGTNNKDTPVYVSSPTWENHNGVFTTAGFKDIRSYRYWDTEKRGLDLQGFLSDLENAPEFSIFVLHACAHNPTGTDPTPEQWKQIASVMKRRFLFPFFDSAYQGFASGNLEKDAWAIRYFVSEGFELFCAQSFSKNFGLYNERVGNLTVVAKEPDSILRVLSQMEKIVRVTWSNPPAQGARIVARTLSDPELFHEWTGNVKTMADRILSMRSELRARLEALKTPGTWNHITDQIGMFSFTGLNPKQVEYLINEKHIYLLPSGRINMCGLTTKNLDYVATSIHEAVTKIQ
compound,measurement,setting,value
"N[C@H]1C=C(C(=O)O)CC1(F)F [SS-1-148, (S)-3-Amino-4,4-difluorocyclopent-1-enecarboxylic acid hydrochloric acid salt]",Liver microsomal stability (t1/2) Mouse,[1],N/C
same,Ki,"Asp-AT; read-out: Off-target effects (Ki, mM) Asp-AT",> 20 mM
same,inhibition on Asp-AT,Asp-AT; up to 10 mM,did not show noticeable inhibition
same,rate constant of final phase (increase at ~275 nm),hOAT,0.007 s⁻¹
same,rate dependence of second external aldimine formation (bimolecular reaction),hOAT,6200 M⁻¹ s⁻¹
same,rate of accumulation of quinonoid species (~560 nm),hOAT,0.4 s⁻¹
same,rate of quinonoid decay,hOAT,0.09 s⁻¹
same,IC50,CYP 2C19,> 100 µM
